The NIST ThermoML archive (doi:10.1016/j.fluid.2015.08.008)

Assays:
[1] = Boiling temperature at pressure P; conditions: Liquid, distillation unit - dew point temperature
[2] = 101.33 kPa, Liquid, Vibrating tube method

C1CN=C2CCCN2C1 [1,5-diazabicyclo[4.3.0]non-5-ene]
Conditions	Boiling temperature at pressure P [°C]	mass density [kg/m3]
[1], 0.71 kPa	85.69	–
[1], 0.91 kPa	90.86	–
[1], 0.92 kPa	91.46	–
[1], 1.39 kPa	98.20	–
[1], 1.41 kPa	98.90	–
[1], 1.87 kPa	105.99	–
[1], 2.81 kPa	114.1	–
[1], 2.86 kPa	114.66	–
[1], 3.37 kPa	117.81	–
[1], 3.88 kPa	120.18	–
[1], 5.11 kPa	127.00	–
[1], 5.53 kPa	128.91	–
[1], 6.11 kPa	131.70	–
[1], 7.15 kPa	134.78	–
[1], 8.11 kPa	139.00	–
[1], 9.4 kPa	142.40	–
[1], 10.12 kPa	144.50	–
[1], 12.14 kPa	149.60	–
[2], 293.15 K	–	1037.59
[2], 298.15 K	–	1033.58
[2], 303.15 K	–	1029.56
[2], 308.15 K	–	1025.52
[2], 313.15 K	–	1021.49
[2], 318.15 K	–	1017.4
[2], 323.15 K	–	1013.33

C1CCC2=NCCCN2CC1 [1,8-diaza-7-bicyclo[5.4.0]undecene]
[1]
Conditions	Boiling temperature at pressure P [°C]
0.51 kPa	102.62
0.71 kPa	110.30
1.01 kPa	116.2
1.31 kPa	122.00
1.51 kPa	124.60
1.71 kPa	127.70
2.01 kPa	130.80
2.31 kPa	133.90
2.51 kPa	136
3.01 kPa	139.72
3.31 kPa	143.00
3.51 kPa	143.80
4.01 kPa	147.87
4.21 kPa	149.07
4.51 kPa	150.98
5.01 kPa	153.77
5.31 kPa	154.70
6.31 kPa	159.30
7.31 kPa	164.1
